Measurements taken from publication PMC9019572, “Design, Synthesis, and Biological Evaluation of [1,2,4]triazolo[4,3-a] Pyrazine Derivatives as Novel Dual c-Met/VEGFR-2 Inhibitors” (Frontiers in Chemistry, 2022).

How the values were obtained:
A549 cells [1] = assay: MTT antiproliferative assay, A549; format: cell-based; conditions: Homo sapiens, 72 h;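 further: formazan read-out dissolved in DMSO, each compound assayed three times, IC50 computed with Bliss software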
Method: The cell lines used in the experiment were available from the Cell Culture Collection of Chinese Academy of Sciences (Shanghai Institutes for Biological Sciences, Chinese Academy of Sciences). […] The formazan crystals were dissolved in 100 µl of DMSO in each well. […] All compounds were tested three times in each of the cell lines. The results, expressed as inhibition rates or IC50 (half-maximal inhibitory concentration), were the averages of two determinations and calculated by using the Bacus Laboratories Incorporated Slide Scanner (Bliss) software.

MCF-7 cells = assay: MTT antiproliferative assay, MCF-7; format: cell-based; conditions: Homo sapiens, MCF7; MTT, 72 h, MCF-7 cells; read-out: IC50 MCF-7
Method: (§1) The cell lines used in the experiment were available from the Cell Culture Collection of Chinese Academy of Sciences (Shanghai Institutes for Biological Sciences, Chinese Academy of Sciences). Referring to the previous experimental methods of our research, all cells were cultured in suitable medium such as DMEM or RPMI-1640 containing 10% fetal bovine serum at 37°C in 5% CO2 and propagated for 24 h. Then the compounds with different gradient concentrations were added into the medium and incubated for 72 h, and then MTT (thiazolyl blue tetrazolium bromide) with a concentration of 5 µg/ml was added to every well for 4 h at 37°C. The formazan crystals were dissolved in 100 µl of DMSO in each well. The absorbancy at 492 nm (for absorbance of MTT formazan) and 630 nm (for the reference wavelength) was measured with an ELISA reader. All compounds were tested three times in each of the cell lines. The results, expressed as inhibition rates or IC50 (half-maximal inhibitory concentration), were the averages of two determinations and calculated by using the Bacus Laboratories Incorporated Slide Scanner (Bliss) software.

Hela cells = assay: MTT antiproliferative assay, Hela; format: cell-based; conditions: Homo sapiens; MTT, 72 h, Hela cells; read-out: IC50 Hela
Method: as §1

c-Met kinase = c-Met kinase (Homo sapiens, UniProt P08581); assay: c-Met kinase inhibition assay; format: biochemical
c-Met kinase, sequence (P08581 25-1390): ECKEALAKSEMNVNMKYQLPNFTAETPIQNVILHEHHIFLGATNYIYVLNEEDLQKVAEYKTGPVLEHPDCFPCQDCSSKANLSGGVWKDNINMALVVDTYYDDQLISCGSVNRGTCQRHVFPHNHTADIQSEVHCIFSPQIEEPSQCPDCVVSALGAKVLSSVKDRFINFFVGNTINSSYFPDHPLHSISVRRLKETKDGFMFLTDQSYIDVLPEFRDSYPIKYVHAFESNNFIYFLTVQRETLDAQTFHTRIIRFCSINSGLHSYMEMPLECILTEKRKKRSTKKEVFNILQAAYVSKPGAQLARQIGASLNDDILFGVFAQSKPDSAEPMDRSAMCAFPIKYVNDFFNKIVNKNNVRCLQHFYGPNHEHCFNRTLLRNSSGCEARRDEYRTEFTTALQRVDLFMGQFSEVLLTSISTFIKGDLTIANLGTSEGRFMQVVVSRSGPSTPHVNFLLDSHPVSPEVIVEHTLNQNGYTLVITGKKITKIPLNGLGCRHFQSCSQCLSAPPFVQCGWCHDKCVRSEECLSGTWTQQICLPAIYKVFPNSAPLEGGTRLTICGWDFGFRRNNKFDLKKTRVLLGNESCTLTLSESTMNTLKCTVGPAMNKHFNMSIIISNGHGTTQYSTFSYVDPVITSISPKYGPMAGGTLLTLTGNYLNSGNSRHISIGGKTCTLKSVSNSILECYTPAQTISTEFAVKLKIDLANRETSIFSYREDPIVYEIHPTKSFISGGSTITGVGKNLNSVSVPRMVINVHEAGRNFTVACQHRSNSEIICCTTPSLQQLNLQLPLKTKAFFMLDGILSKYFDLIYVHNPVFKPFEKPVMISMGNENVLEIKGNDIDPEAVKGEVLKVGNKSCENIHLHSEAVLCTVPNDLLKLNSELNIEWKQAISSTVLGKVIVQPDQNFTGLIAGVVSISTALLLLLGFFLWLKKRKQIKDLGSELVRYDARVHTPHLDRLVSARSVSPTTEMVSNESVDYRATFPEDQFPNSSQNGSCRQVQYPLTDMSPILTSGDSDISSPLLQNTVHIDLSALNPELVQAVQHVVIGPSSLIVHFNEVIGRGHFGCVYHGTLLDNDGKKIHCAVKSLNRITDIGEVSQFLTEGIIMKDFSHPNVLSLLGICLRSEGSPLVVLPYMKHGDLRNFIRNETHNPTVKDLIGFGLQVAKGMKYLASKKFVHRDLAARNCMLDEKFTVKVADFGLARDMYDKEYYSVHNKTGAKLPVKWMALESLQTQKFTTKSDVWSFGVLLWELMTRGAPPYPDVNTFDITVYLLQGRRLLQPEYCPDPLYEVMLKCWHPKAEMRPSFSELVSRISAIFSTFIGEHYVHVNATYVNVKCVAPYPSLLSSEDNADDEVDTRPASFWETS

VEGFR-2 = VEGFR-2 (Homo sapiens, UniProt P35968); assay: VEGFR-2 kinase inhibition assay; format: biochemical
VEGFR-2, sequence (P35968 20-1356): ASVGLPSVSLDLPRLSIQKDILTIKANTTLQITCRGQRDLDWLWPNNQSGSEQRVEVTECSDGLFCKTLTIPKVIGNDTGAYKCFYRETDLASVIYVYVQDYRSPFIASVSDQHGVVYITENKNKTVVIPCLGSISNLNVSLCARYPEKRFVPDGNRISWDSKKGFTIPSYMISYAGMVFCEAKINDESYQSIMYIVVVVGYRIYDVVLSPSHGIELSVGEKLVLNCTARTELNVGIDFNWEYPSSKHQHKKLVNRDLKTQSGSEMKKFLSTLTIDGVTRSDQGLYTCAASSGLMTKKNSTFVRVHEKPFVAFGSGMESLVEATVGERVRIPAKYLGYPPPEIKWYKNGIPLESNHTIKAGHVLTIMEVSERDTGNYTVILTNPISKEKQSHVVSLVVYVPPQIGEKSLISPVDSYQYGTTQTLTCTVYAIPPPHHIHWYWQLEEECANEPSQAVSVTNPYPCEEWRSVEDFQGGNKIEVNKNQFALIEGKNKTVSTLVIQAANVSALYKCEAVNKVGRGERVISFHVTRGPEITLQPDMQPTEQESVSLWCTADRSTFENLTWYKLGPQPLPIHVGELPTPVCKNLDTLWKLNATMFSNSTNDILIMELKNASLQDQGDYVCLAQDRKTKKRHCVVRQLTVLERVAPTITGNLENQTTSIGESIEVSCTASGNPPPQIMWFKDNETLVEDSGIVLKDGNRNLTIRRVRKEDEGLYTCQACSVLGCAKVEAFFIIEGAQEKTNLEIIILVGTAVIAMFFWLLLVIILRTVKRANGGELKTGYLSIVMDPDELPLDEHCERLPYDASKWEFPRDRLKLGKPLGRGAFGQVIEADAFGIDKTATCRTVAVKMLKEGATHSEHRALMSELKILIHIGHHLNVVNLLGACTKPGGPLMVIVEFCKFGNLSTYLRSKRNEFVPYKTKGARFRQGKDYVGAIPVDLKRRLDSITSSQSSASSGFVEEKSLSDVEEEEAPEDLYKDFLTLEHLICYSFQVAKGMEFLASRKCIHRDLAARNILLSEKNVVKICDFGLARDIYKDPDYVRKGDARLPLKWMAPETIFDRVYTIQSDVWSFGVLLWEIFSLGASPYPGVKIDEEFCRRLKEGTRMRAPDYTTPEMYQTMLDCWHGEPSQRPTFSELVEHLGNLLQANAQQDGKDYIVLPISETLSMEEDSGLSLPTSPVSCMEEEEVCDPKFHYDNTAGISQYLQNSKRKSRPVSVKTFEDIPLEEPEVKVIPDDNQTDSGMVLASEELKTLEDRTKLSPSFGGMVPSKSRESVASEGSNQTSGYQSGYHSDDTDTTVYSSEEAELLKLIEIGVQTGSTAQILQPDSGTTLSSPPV
Method: (§2) The kinase assay was performed by Pratzer Biotechnology Co. Ltd. (Changsha, China).

EGFR^WT = EGFR^WT (Homo sapiens, UniProt P00533); assay: EGFR^wt kinase inhibition assay; format: biochemical
EGFR^WT, sequence (P00533 25-1210): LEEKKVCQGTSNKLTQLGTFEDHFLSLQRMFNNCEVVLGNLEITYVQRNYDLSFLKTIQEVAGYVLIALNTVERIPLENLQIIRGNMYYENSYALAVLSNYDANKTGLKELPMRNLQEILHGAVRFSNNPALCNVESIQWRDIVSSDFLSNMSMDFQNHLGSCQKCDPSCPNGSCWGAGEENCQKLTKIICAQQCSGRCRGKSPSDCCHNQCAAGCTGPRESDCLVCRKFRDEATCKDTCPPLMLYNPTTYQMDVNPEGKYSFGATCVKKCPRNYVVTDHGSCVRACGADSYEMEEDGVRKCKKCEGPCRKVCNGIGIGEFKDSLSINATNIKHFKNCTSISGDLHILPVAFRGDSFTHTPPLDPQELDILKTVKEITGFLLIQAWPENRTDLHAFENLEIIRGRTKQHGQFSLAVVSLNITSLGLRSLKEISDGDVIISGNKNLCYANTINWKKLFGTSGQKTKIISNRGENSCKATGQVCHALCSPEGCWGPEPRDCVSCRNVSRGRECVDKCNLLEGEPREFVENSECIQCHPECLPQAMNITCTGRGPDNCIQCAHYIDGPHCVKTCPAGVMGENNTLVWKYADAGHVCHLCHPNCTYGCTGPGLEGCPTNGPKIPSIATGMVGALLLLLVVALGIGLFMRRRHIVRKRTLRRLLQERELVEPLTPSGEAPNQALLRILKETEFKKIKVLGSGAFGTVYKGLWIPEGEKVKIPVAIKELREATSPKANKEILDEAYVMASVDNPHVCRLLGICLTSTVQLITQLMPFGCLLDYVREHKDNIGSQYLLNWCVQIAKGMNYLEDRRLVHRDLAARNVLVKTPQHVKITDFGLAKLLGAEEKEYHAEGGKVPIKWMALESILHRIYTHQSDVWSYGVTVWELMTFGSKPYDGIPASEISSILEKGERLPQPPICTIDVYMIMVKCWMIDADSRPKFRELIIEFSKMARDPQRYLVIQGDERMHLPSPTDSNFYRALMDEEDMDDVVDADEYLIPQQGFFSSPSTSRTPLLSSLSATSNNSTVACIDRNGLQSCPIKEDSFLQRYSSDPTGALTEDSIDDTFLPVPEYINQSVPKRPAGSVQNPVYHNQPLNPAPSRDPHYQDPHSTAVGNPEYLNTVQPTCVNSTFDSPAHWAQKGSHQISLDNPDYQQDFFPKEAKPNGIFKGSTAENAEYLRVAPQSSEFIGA
Method: as §2

PC-9 cells = assay: Antiproliferative activity, PC-9; format: cell-based; conditions: Homo sapiens
Method: as §1

H460 cells = assay: Antiproliferative activity, H460; format: cell-based; conditions: Homo sapiens, NCI-H460
Method: as §1

H1975 cells = assay: Antiproliferative activity, H1975; format: cell-based; conditions: Homo sapiens, NCI-H1975
Method: as §1

A549 cells [2] = assay: Cell cycle assay by flow cytometry; format: cell-based, human; conditions: A549, 1.0 μM, 72 h; control 61.14%
Method: A549 cells were placed in 12-well plates at a density of 10^6/well with F-12 K containing 10% FBS as the medium, and the experiment was conducted on alternate days. Cells (1–5×10^6) were collected, centrifuged at 1,500 rpm for 5 min to remove the supernatant, washed with PBS twice, and gently mixed with 200 μl of cell cycle rapid detection reagent to make a single-cell suspension, which was detected by flow cytometry within 1 h.
We treated A549 cells with 1.0 μM compound 17l for 72 h and determined its effect on cell cycle by flow cytometry to further reveal the growth inhibition mechanism of the target compound on tumor cells. […] At the same time, the content of cell block rate decreased in S phase, but the change in G2/M phase was not obvious.

A549 cells [3] = assay: Annexin V/PI apoptosis assay by flow cytometry; format: cell-based, human; conditions: 72 h; for Q1-LR: control 1.68%; for Q1-UL: control 1.87%; for Q1-UR: control 2.05%; for total apoptosis rate: control 3.73%; for Q1-LL: control 94.40%
Method: The cell apoptosis assay was performed by Pratzer Biotechnology Co. Ltd. (Changsha, China). After A549 cells were resuscitated, the cells were cultured in F-12 K medium containing 10% FBS and 1% pen/strep in incubator with 5% CO2 at 37°C. A549 cells, being in the logarithmic growth phase, were digested with […] and laid in six-well plates with a density of 2 × 10^5/well, and the cells were collected centrifugally after 72 h of treatment with each compound. The cells were washed twice with PBS, which was precooled to 4°C. Then the cells were suspended with 500 μl of buffer, and the concentration was adjusted to 10^6/ml. A 100-μl suspension was placed in a 5-ml flow tube, adding 5 µl of Annexin V-APC, adding 5 μl of propidiμm iodide, and the mixture was mixed and incubated at room temperature without light for 15 min detecting cell apoptosis by flow cytometry (FACS).
The assay of annexin V/PI staining was performed to deeper research the mechanism of apoptosis induced by compound 17l in A549 cells.

p-c-Met (Tyr1003) = assay: Western blot, p-c-Met in A549 cells; format: cell-based, human; conditions: A549, 24 h, different concentrations
Description: (§3) Western blot was utilized to further analyze the effect of compound 17l on the downstream signal protein of c-Met and VEGFR-2. The detailed operations refer to the previous method of our research group ([Zhao et al., 2020]). […] The extracted protein was transferred to a PVDF membrane in ice bath conditions after 10% SDS polyacrylamide gel electrophoresis separating the protein by size. The PVDF membrane was rinsed with phosphate-buffered solution (PBST), shaken in a Petri dish three times for 3–5 min every time, and incubated with different target proteins (p-c-Met, p-VEGFR-2, p-ERK 1/2, p-AKT, and GADPH). Finally, the film was exposed and developed in a darkroom. Image Lab software (Molecular Dynamics, Sunnyvale, CA, USA) was utilized to analyze the shadow density of each band, which was then expressed as a percentage of GDPDH band density ([Zhao et al., 2020]).
(§4) We further verified the effect of compound 17l on c-Met and downstream signaling pathways. We treated A549 cell line with different doses of compound 17l for 24 h to measure its phosphorylation inhibition in different pathways.

p-VEGFR-2 (Tyr1059) = assay: Western blot, p-VEGFR-2 in A549 cells; format: cell-based, human; conditions: A549, 24 h, different concentrations
Description: as §3, §4

ERK1/2 and AKT = assay: Western blot, downstream ERK1/2 and AKT phosphorylation in A549 cells; format: cell-based, human; conditions: A549, 24 h, 1.00 μM
Description: as §3, §4

sheep red blood cells = assay: Hemolytic test; conditions: 16–256 μg/ml, at the highest concentration within the study range
Method: The hemolytic toxicity of 17l was studied with 1% Triton and 0.9% normal saline, and the former was a positive control, and the latter was a negative control. […] (1%), 0.9% normal saline, and compound 17l of different concentrations prepared in 0.9% normal saline reacted with the prepared sheep red blood cells, respectively. Photos were taken, and the absorbance value was measured by ultraviolet spectrophotometer at a wavelength of 540 nm, and hemolysis ratio (hemolysis %) was calculated according to the following formula ([Guo et al., 2017]). The experiment was repeated twice in parallel. Hemolysis %=Abs(experimental group)−Abs(negative control)/Abs(positive control)−Abs(negative control)
The best compound 17l with antiproliferative activity and kinase inhibition activity was selected to detect its hemolytic toxicity at a gradient concentration of 16–256 μg/ml, and the safety of intravenous administration was preliminarily investigated. […] Its hemolytic toxicity meets the requirements of intravenous administration, which provides a basis for further in vivo research.

## Cc1nnc2c(Oc3ccc(NC(=O)c4cnn(-c5ccc(Cl)cc5)c4C(F)(F)F)cc3F)nccn12 [17l]
A549 cells [1]
  IC50: 980 ± 80 nM
MCF-7 cells
  IC50: 1050 ± 170 nM
Hela cells
  IC50: 1280 ± 250 nM
c-Met kinase
  IC50: 26 nM
VEGFR-2
  IC50: 2600 nM
EGFR^WT
  IC50: > 10000 nM
PC-9 cells
  IC50: 38200 ± 1580 nM
H460 cells
  IC50: 5860 ± 770 nM
H1975 cells
  IC50: 15300 ± 1180 nM
A549 cells [2]
  cell block rate in G0/G1 phase: 76.14%
A549 cells [3]; A549, 0.25 μM
  Q1-LR: 2.15%
  Q1-UL: 4.27%
  Q1-UR: 2.71%
  total apoptosis rate: 4.86%
  Q1-LL: 90.88%
A549 cells [3]; A549, 0.50 μM
  Q1-LR: 3.07%
  Q1-UL: 1.53%
  Q1-UR: 3.38%
  total apoptosis rate: 6.45%
  Q1-LL: 92.02%
A549 cells [3]; A549, 1.00 μM
  Q1-LR: 5.52%
  Q1-UL: 0.30%
  Q1-UR: 6.09%
  total apoptosis rate: 11.61%
  Q1-LL: 88.09%
p-c-Met (Tyr1003)
  protein levels of p-c-Met (Tyr1003): inhibited
p-VEGFR-2 (Tyr1059)
  inhibitory effect on p-VEGFR-2 (Tyr1059): not obvious
ERK1/2 and AKT
  phosphorylation protein of downstream signals ERK1/2 and AKT: significantly inhibited
Sheep red blood cells
  hemolytic rate: less than 5%
